Reference: patent publication US8399495B2, “Talarazole metabolites” (Stiefel Laboratories, Inc., priority 2006, dated 2013)

What was measured:
[1] = system: vaginal keratinization induced by estrogenic treatment; test: Inhibition of vaginal keratinization induced by estrogenic treatment in ovariectomized rats; assay type: in vivo, rat; conditions: for ED50-value for complete suppression (keratinization score=0): ovariectomized rats with estrogenic treatment, M4 oral during 3 days
Source text: Effects on Epithelial Differentiation in Rat Vagina: Inhibition of Vaginal Keratinization Induced by Estrogenic Treatment in Ovariectomized Rats by Oral Administration of Talarozole Metabolite M4
This animal model is based on the observation that retinoic acid (RA) suppresses the keratinization process in the stratified squamous epithelium of the vagina induced by estrogenic treatment in ovariectomized rats (Sietsema & DeLuca, 1982; Geiger & Weiser, 1989).

[2] = Metabolite radioprofiling of plasma, urine and feces, rat; assay type: in vivo; conditions: rat (5 mg/kg) oral 14C-talarozole; for Urine % Dose as the component: urine 0-48 h
Procedure: (§1) Male and female CD-1 mice (19-29 g, n=3/sex/timepoint for blood sampling, n=3/sex for mass balance), Sprague Dawley rats (0.205-0.237 kg, n=3/sex/timepoint for blood sampling, n=3/sex for mass balance) and beagle dogs (7-12 kg, n=3) were given a single oral dose of ^14C-labeled talarozole in 20% hydroxyl propyl B-cyclodextrin at 5 mg/kg. Healthy human male volunteers (76.6-107.9 kg, n=5) were dosed with a single oral dose of 4 mg ^14C-labeled rambazole in ethanol. Blood samples were collected at selected timepoints after dosing and plasma was prepared. Urine and feces were collected for 2, 7 and 8 days. For the human study, up to 288 hours post-dose and semen samples were obtained 2 and 4 hours post-dose. Radioactivity in various matrices were measured by liquid scintillation counting (LSC). Select plasma, urine and fecal samples were subjected to metabolite radioprofiling and characterization, and in the human study, semen samples. Metabolite radioprofiling was accomplished using HPLC with fraction collection followed by solid scintillation counting (Packard TopCount—see representative HPLC run data below). Radioactivity peaks were integrated and the percent distribution of individual metabolites in each sample was determined. Metabolite characterization and identification were accomplished by LC/MS (Finnigan MAT LCQ in positive or negative ESI mode) in conjunction with an appropriate radioactive monitor (RAM). For all species, plasma, urine and fecal samples were pooled across animals and analyzed. Plasma was analyzed at several time-points out to 24 hours. Urine was analyzed over one time-interval (0-24 hours for mouse, 0-48 hours for rat, 0-72 hours for dog, and for in the human study, 0-12, 12-24, 24-48, 0-48 hours. Feces was analyzed over 2-3 time intervals (0-24 and 24-48 hours for mouse and rat; 0-24, 24-48, and 48-72 hours for male dogs; and 24-48, 48-72, and 72-96 hours for female dogs). In the human study, feces were analyzed for 0-48, 48-96, 96-144, 144-192, 192-288, 0-144, 144-288 and 0-288 hours. PK parameters for ^14C-labeled talarozole radioactivity was determined from the mean (mouse and rat) or individual (dog and human) plasma concentration versus time data. PK parameter values were determined by non-compartmental methods using WinNonlin™. • HPLC data for separations described in Example 1: • LC system: Waters 2695 Separations Module • Analytic column: C18 column, 4.6×150 mm, 3 μm • Flow rate: 1.0 mL/min • Mobile phase A: 2% HCOOH in H2O (pH 3.2) • Mobile phase B: CH3CN • Gradient: […]

[3] = Metabolite radioprofiling of plasma, urine and feces, mouse; assay type: in vivo; conditions: mouse (5 mg/kg) oral 14C-talarozole; for Urine % Dose as the component: urine 0-24 h
Procedure: as §1

[4] = Metabolite radioprofiling of plasma, urine and feces, dog; assay type: in vivo; conditions: dog (5 mg/kg) oral 14C-talarozole; for Urine % Dose as the component: urine 0-72 h
Procedure: as §1

IP-10 = test: Suppression of IP-10 production by IFNγ-activated human epidermal keratinocytes; assay type: cell-based
Source text: Talarozole Metabolites for Suppression of IP-10 Production by IFNγ-Activated Human Epidermal Keratinocytes
IP-10, a member of the CXC subfamily of chemokines, attracts T-lymphocytes and natural killer cells. […] In particular, epidermal keratinocytes of psoriatic lesions express elevated levels of IP-10. Suppression of IP-10 expression by activated keratinocytes may represent a novel target for therapeutic intervention of inflammatory skin disorders.

[5] = Metabolite radioprofiling of plasma, urine, feces and semen, human; conditions: in vivo
Procedure: as §1

| SMILES | ED50-value for complete suppression (keratinization score=0) [1] [mg/kg/day] | Feces % Dose as the component ([2]; female) [% Dose] | Plasma 0-24 h AUC (% Sample) ([2]; female) [%] | Plasma 0-24 h AUC of the radioactive component ([2]; female) [ng·h/g] | Urine % Dose as the component ([2]; female) [% Dose] | Feces % Dose as the component ([2]; male) [% Dose] | Plasma 0-24 h AUC (% Sample) ([2]; male) [%] | Plasma 0-24 h AUC of the radioactive component ([2]; male) [ng·h/g] | Urine % Dose as the component ([2]; male) [% Dose] | Plasma 0-24 h AUC (% Sample) ([3]; female) [%] | Plasma 0-24 h AUC of the radioactive component ([3]; female) [ng·h/g] | Plasma 0-24 h AUC (% Sample) ([3]; male) [%] | Plasma 0-24 h AUC of the radioactive component ([3]; male) [ng·h/g] | Feces % Dose as the component ([4]; female) [% Dose] | Urine % Dose as the component ([4]; female) [% Dose] | Feces % Dose as the component ([4]; male) [% Dose] | Urine % Dose as the component ([4]; male) [% Dose] | IP-10 expression (IP-10) | also measured |
| --- | --- | --- | --- | --- | --- | --- | --- | --- | --- | --- | --- | --- | --- | --- | --- | --- | --- | --- | --- |
| CC1=C(/C=C/C(C)=C/C=C/C(C)=C/C(=O)O)C(C)(C)CCC1 [RA, retinoic acid] | 5.1 |  |  |  |  |  |  |  |  |  |  |  |  |  |  |  |  |  |  |
| CCC(CC)C(c1ccc(Nc2nc3ccc(OS(=O)(=O)O)cc3s2)cc1)n1cncn1 (stereo not shown) [Metabolite M16] |  | 1.33 | 2.43 | 218.47 | 0.31 | 1.42 | 2.94 | 207.48 | 0.16 |  |  |  |  |  |  |  |  |  |  |
| CCC(CC)C(c1ccc(Nc2nc3ccc(OC4OC(C(=O)O)C(O)C(O)C4O)cc3s2)cc1)n1cncn1 (stereo not shown) [Metabolite M9] |  |  | 12.06 | 1084.8 |  |  | 4.43 | 312.30 |  | 18.27 | 1208.2 | 21.31 | 1937.3 | 3.09 | 0.45 | 4.31 | 1.35 |  |  |
| CCC(CC)C(c1ccc(Nc2nc3ccc(O)cc3s2)cc1)n1cncn1 (stereo not shown) [Metabolite M4] | 1.2 | 7.76 | 3.68 | 331.07 | 0.29 | 4.95 | 7.01 | 493.84 | 0.07 | 7.44 | 492.2 | 4.43 | 402.45 | 17.01 | 0.01 | 19.88 | 0.04 | down regulate dose-dependently | inhibition of vaginal keratinization ([1]; oral administration during 3 days, ovariectomized rats): inhibited vaginal keratinization induced by estrogenic treatment in ovariectomized rats in a dose-dependent manner; Feces % Dose as the component ([3]; female): 15.16 % Dose; Urine % Dose as the component ([3]; female): 0.01 % Dose; Feces % Dose as the component ([3]; male): 10.56 % Dose; Urine % Dose as the component ([3]; male): 0.02 % Dose; Plasma 0-24 h AUC (% Sample) ([4]; female): 34.33%; Plasma 0-24 h AUC of the radioactive component ([4]; female): 6257.6 ng·h/g; Plasma 0-24 h AUC (% Sample) ([4]; male): 18.37%; Plasma 0-24 h AUC of the radioactive component ([4]; male): 3132.4 ng·h/g; Plasma 0-24 h AUC of the radioactive component ([5]; human, po, 0.067 mg/kg): 58.74 ng·h/g; Semen (radioactive component in semen samples) [5]: minor radioactive components; Plasma 0-24 h AUC (% Sample), % of total plasma radioactivity ([5]; male, human, po, 0.067 mg/kg): 27.8% |
| CCC(CC)[C@@H](c1ccc(Nc2nc3ccccc3s2)cc1)n1cncn1 [its enanantiomer] |  |  |  |  |  |  |  |  |  |  |  |  |  |  |  |  |  | down regulate dose-dependently |  |
